According to patent publication US20150111896A1, “HEMATOPOIETIC PROTECTION AGAINST CHEMOTHERAPEUTIC COMPOUNDS USING SELECTIVE CYCLIN-DEPENDENT KINASE 4/6 INHIBITORS” (The University of North Carolina at Chapel Hill, priority 2008, published 2015):

Experiments:
[1] = test system: telomerized human diploid fibroblast (tHDF) cells (HS68); assay: Cell proliferation assay (WST-1 or CellTiter-Glo) after chemotherapeutic; conditions: HS68 (CDK4/6-dependent); pretreatment prior to carboplatin, etoposide or doxorubicin
Method: (§6) In some embodiments, cell viability is assessed by performing a assay using 2-(4-iodophenyl)-3-(4-nitrophenyl)-5-(2,4-disulfophenyl)-2H-tetrazolium monosodium salt (WST-1), such as described further hereinbelow. In the WST-1 assay, WST-1 is cleaved by a mitochondrial reductase present in viable cells to form a colored product (i.e., formazan) that can be detected by measuring absorbance at a particular wavelength (e.g., 420-480 nm). […] The CellTiter-Glo® assay (CTG assay; Promega, Madison, Wis., United States of America) measures cell viability by measuring ATP concentration in cell lysate.
(§7) Cell lines: Telomerized human diploid fibroblast (tHDF) cells (HS68) were cultured in Dulbecco's Modified Eagle Medium (DMEM) +10% fetal bovine serum (FBS) with any additional compounds. The same conditions were used for A2058 and WM2664, human melanoma cell lines with known RB-pathway mutations: A2058 is RB-null, whereas WM2664 lacks INK4a/ARF. Thus, A2058 cells are CDK4/6-independent, while WM2664 cells are CDK4/6-dependent. Cells were cultured in DMEM+10% FBS.
(§8) Cell proliferation assays: Cell proliferation assays were performed by seeding 1×10^3 cells per well in a 96-well tissue culture plate in 100 μL of growth medium. Cells were treated as indicated with compound from Table 1 and doxorubicin, etoposide or carboplatin. Following treatment, cells were allowed to recover for 7 days in normal growth medium. At the end of the recovery period, cell number was quantified using the VVST-1 cell proliferation assay (TaKaRa Bio USA, Madison, Wis., United States of America) or the CellTiter-Glo® assay (CTG; Promega, Madison, Wis., United States of America). Data is presented as absorbance at 450 nm for the WST assays or Relative Light Units (RLU) for the CTG assays.

[2] = test system: hematopoietic stem and progenitor cells (HSPC); assay: In vivo pharmacodynamic assay (BrdU incorporation, Ki67) in bone marrow; design: species or system mice
Method: PD0332991: For HSPC proliferation experiments, mice received daily oral gavage with PD0332991 150 mg/kg for 2 days with 1 mg BrdU intraperitoneal injection (i.p.) every 6 hours for 24 hours prior to sacrifice.
2BrIC: For HSPC proliferation experiments, mice were treated with two doses of 2-bromo-12,13-dihydro-5H-indolo[2,3-a]pyrrolo[3,4-c]carbazole-5,7(6H)-dione (2BrIC) 300 mg/kg oral gavage or vehicle control. 2BrIC was solubilized for oral gavage using formulation #6 from the Hot Rod formulation kit (Pharmatek, Inc., San Diego, Calif., United States of America). 2BrIC was administered 2 hours prior to BrdU administration and readministered at the time of the BrdU 1 mg i.p. injection. After BrdU+/−2BrIC treatment for the indicated times, the mice were sacrificed and bone marrow harvested for immunophenotyping, and BrdU analysis.
Bone marrow (BM) was harvested from femurs of mice, pooled, and centrifuged to purify bone marrow mononuclear cells (BM-MNCs). Cells were then incubated for 5 minutes in ACK buffer to lyse red blood cells. All antibodies were from BD Pharmingen (San Jose, Calif., United States of America) unless otherwise indicated. Purified BM-MNCs were incubated with mouse lineage mixture biotin conjugated antibody, followed by streptavidin-FITC. Cells were then stained with Sca-1-PE-Cy7 and c-kit-APC-alexa750 antibodies. Cell viability was assessed using LIVE/DEAD Aqua Dead Cell Stain Kit (Invitrogen Corporation, Carlsbad, Calif., United States of America). For BrdU incorporation assay, the cells were fixed, permeablized, and stained with an APC BrdU Flow Kit according to the manufacturer's instruction. In all experiments, PE-Cy7, FITC, APC-alexa750, and the Aqua Dead cell stain isotype controls were included as appropriate. Flow cytometric analysis was performed using a CyAn ADP (Dako, Glostrup, Denmark). For each sample, a minimum of 500,000 cells was analyzed and the data were analyzed using FlowJo software (Tree Star, Ashland, Oreg., United States of America).

[3] = test system: telomerized human diploid fibroblast (tHDF) cells (HS68); assay: Cell cycle analysis (BrdU and propidium iodide, flow cytometry); format: cell-based; conditions: HS68 (CDK4/6-dependent), 24 hours treatment
Method: (§1) Cells were cultured in DMEM+10% FBS.
(§2) Cell cycle analysis: Cell cycle analysis was performed using BrdU and propidium iodide (both from BD Biosciences Pharmigen, San Jose, Calif., United States of America) following the manufacturer's protocol. Cells were treated for 24 hours with a test compound at a desired dose prior to 15 minutes BrdU pulse, cell harvesting, fixation, staining, and analysis by flow cytometry.
(§3) Histograms of dose-response curves of PD332991 and 2BrIC in HS68, WM2664 and A2058 cells were analyzed using Mod-Fit™ software from Verity Software House (Topsham, Me., United States of America).

[4] = test system: human melanoma cells lacking INK4a/ARF (WM2664); assay: as above; format: cell-based; conditions: WM2664 (CDK4/6-dependent), 24 hours treatment
Method: as §1, §2, §3

[5] = test system: human patients with malignancies; conditions: serially treated; cited from earlier work
[6] = test system: mice exposed to chemotherapeutic agents; assay: Myelosuppression assay: weekly complete blood counts; format: in vivo; conditions: for protection of blood cell counts (platelets, hemoglobin, lymphocytes, granulocytes) from doxorubicin: 150 mg/kg oral gavage 1 hour before DOX 10 mg/kg i.p., repeated after 7 days, blood at fourteen days; for protection of blood cell counts (platelets, hemoglobin, lymphocytes, granulocytes) from carboplatin: 150 mg/kg oral gavage one hour before Carbo 100 mg/kg i.p., blood at seven day intervals
Method: PD0332991: In the carboplatin experiments, mice were treated with a single dose of PD0332991 150 mg/kg oral gavage or vehicle control followed by carboplatin 100 mg/kg IP injection. In the doxorubicin experiments, mice were treated with a PD0332991 150 mg/kg by oral gavage or vehicle control one hour before doxorubicin 10 mg/kg by IP injection on day 0 and then repeated on day 7.
2BrIC: Mice were treated with a single dose of carboplatin 100 mg/kg by IP injection and two doses of 2BrIC 150mg/kg oral gavage or vehicle control. Mice were pretreated with 2BrIC two hours prior to carboplatin administration and then readministered a second dose of 2BrIC at the time of the carboplatin injection.
Baseline complete blood count (CBC) analysis were performed on a subset of mice prior to drug administration. Following drug administration (chemotherapy+/−indicated CDK4/6 inhibitor or control), mice were monitored weekly for the presence of myelosuppression by CBC analysis. CBC analysis was performed using BD Microtainer tubes with K2E (K2EDTA), 40 μL of blood was collected by tail vein nick. Blood was analyzed using a HESKA CBC-Diff Veterinary Hematology System. CBC analysis included measurement of white blood cells, lymphocytes, granulocytes, monocytes, hematocrit, red blood cells, hemoglobin, platelets, and other common hematological parameters.

[7] = test system: human melanoma cells lacking INK4a/ARF (WM2664); assay: Cell proliferation assay (WST-1 or CellTiter-Glo) after chemotherapeutic; conditions: WM2664 (CDK4/6-dependent); pretreatment prior to carboplatin, etoposide or doxorubicin
Method: as §6, §7, §8

[8] = test system: telomerized human diploid fibroblast (tHDF) cells (HS68); assay: γH2AX assay (DNA damage, flow cytometry); format: cell-based; conditions: 16 hours pretreatment, then 8 hours Carbo, Etop or Dox
Source text: (§4) Reduction in DNA damage effected by the test compound or maintenance of cell viability effected by the test compound in cells treated with cytotoxic compounds can be assessed in any suitable manner. For example, DNA damage in cell populations can be assessed by performing a gamma-H2AX assay as described further herein below. Mammalian cells respond to agents that introduce DNA double-stranded breaks with the immediate and substantial phosphorylation of histone H2AX. Thus, detection of the phosphorylated H2AX, termed gamma-H2AX (γH2AX), using commercially available antibodies, can serve as a measure of DNA damage in cells.
as §1
(§5) γH2AX assay: For γH2AX assay, cells were treated with a dose response of PD332991 or 2BrIC for 24 hours. Cells were fixed, permeabilized, and stained with anti-γH2AX antibody as per γH2AX Flow Kit (Millipore, Billerica, Mass., United States of America). γH2AX levels were assessed by flow cytometry.

[9] = test system: human melanoma cells lacking INK4a/ARF (WM2664); assay: γH2AX assay (DNA damage, flow cytometry); format: cell-based; conditions: 16 hours pretreatment
Source text: as §4, §1, §5

[10] = test system: human RB-null melanoma cells (A2058); assay: γH2AX assay (DNA damage, flow cytometry); format: cell-based; conditions: 16 hours pretreatment, then 8 hours Carbo, Etop or Dox
Source text: as §4, §1, §5

[11] = test system: human RB-null melanoma cells (A2058); assay: Cell proliferation assay (WST-1 or CellTiter-Glo) after chemotherapeutic; conditions: A2058 (CDK4/6-independent); pretreatment prior to carboplatin, etoposide or doxorubicin
Method: as §6, §7, §8

tumor bearing mice = conditions: serially treated; cited from earlier work

## CC(=O)c1c(C)c2cnc(Nc3ccc(N4CCNCC4)cn3)nc2n(C2CCCC2)c1=O [PD0332991, 6-acetyl-8-cyclopentyl-5-methyl-2-(5-piperazin-1-yl-pyridin-2-ylamino)-8H-pyrido-[2,3-d]-pyrimidin-7-one]
[1]
  protection from chemotherapy-induced cytotoxicity (cell proliferation assays): significant protection
[2]; 150 mg/kg daily oral gavage, 48 hours
  proliferation of granulocyte-monocyte progenitors (GMP) and megakaryocyte-erythroid progenitors (MEP): weaker effects
[2]; 48 hours treatment, 24 hour exposure to BrdU
  proliferation in early HSPC populations (BrdU incorporation and Ki67 expression): clearly reduces proliferation
[2]; HSC (Lin−Kit+Sca1+CD48−CD150+), 150 mg/kg daily oral gavage, 48 hours, C57BII/6 mice
  frequency of HSC doubly positive for expression of Ki67 and BrdU: significantly decreased
[2]; Lin−Kit+Sca1−, 150 mg/kg daily oral gavage, 48 hours
  proliferation of oligopotent progenitors (Ki67, BrdU): modest inhibition of proliferation
[2]; MPP (Lin−Kit+Sca1+CD48−CD150−), 150 mg/kg daily oral gavage, 48 hours
  proliferation of multipotent progenitor cell compartment (Ki67, BrdU): more pronounced inhibition of proliferation
[2]; more fully differentiated cells, 150 mg/kg daily oral gavage, 48 hours
  proliferation of Lin−Kit−Sca1− and Lin+ cells: no change in proliferation
[3]
  cell cycle effect: strong, clean and reversible G1-arrest
[4]
  cell cycle effect: strong, clean and reversible G1-arrest
[5]
  erythroid, platelet and myeloid (monocyte+granulocyte) lineages upon administration: decrease
[6]
  protection of blood cell counts (platelets, hemoglobin, lymphocytes, granulocytes) from doxorubicin: provides quadrilineage protection
  protection of blood cell counts (platelets, hemoglobin, lymphocytes, granulocytes) from carboplatin: provides quadrilineage protection
[6]; listed as PD332991
  protection of blood cell counts (platelets, hemoglobin, lymphocytes, granulocytes) from doxorubicin: protected
  protection of blood cell counts (platelets, hemoglobin, lymphocytes, granulocytes) from carboplatin: protected
[7]
  protection from chemotherapy-induced cytotoxicity (cell proliferation assays): significant protection
[8]
  protection from doxorubicin-, carboplatin- or etoposide-induced DNA damage (gamma-H2AX): attenuated γH2AX staining
[8]; listed as PD 0332991
  protection from doxorubicin-, carboplatin- or etoposide-induced DNA damage (gamma-H2AX): ability
[9]; then 8 hours Carbo, Etop or Dox
  protection from doxorubicin-, carboplatin- or etoposide-induced DNA damage (gamma-H2AX): attenuated γH2AX staining
[9]; then 8 hours carboplatin
  protection from carboplatin-induced DNA damage (gamma-H2AX positive cells): ability
[9]; then 8 hours doxorubicin
  protection from doxorubicin-induced DNA damage (gamma-H2AX positive cells): ability
[9]; then 8 hours etoposide
  protection from etoposide-induced DNA damage (gamma-H2AX positive cells): ability
[10]
  protection from doxorubicin-, carboplatin- or etoposide-induced DNA damage (gamma-H2AX): inability
[11]
  protection from chemotherapy-induced cytotoxicity (cell proliferation assays): not
Tumor bearing mice
  erythroid, platelet and myeloid (monocyte+granulocyte) lineages upon administration: decrease
